In US20220031684A1, “PROPHYLACTIC EFFICACY OF SEROTONIN 4 RECEPTOR AGONISTS AGAINST STRESS” (THE TRUSTEES OF COLUMBIA UNIVERSITY IN THE CITY OF NEW YORK, priority 2019, published 2022):

What was measured:
[1] = test system: 129S6/SvEv mice; experiment: 3-shock contextual fear conditioning (CFC); type: in vivo
Method: (§1) This chronic CORT elevation dysregulates the hypothalamic-pituitary-adrenal axis (HPA) in a manner similar to that observed in clinical depression. The dose and duration of CORT treatment was selected based on previous studies. CORT (35 μg/ml, equivalent to about 5 mg/kg/day) dissolved in 0.45% hydroxypropyl-o-cyclodextrin (0-CD) or vehicle (VEH) (0.45% j-CD) was available ad libitum in the drinking water in opaque bottles to protect it from light. VEH- and CORT-treated water was changed every 3 days to prevent possible degradation. Contextual Fear Conditioning (CFC): A 3-shock CFC procedure was administered as previously published. Briefly, mice were placed into context A and administered 3 2-s shocks (0.75 mA) at 180 s, 240 s or 300 s following placement into context A. Mice were removed from the context 15 s following the termination of shock (at 317 s). For context retrieval, mice were placed back into context A for 300 s. Electrophysiology: Electrophysiology was conducted as previously described. Statistical Analysis: Results from data analyses are expressed as means±SEM. Alpha was set to 0.05 for all analyses. Data were analyzed using GraphPad Prism v7.0 or v8.0. For all experiments, unless otherwise noted, one- or two-way ANOVAs with repeated-measures were applied to the data as appropriate. Significant main effects and/or interactions were followed by Fisher's PLSD post hoc analysis or unpaired t-tests. Drugs: All drugs were prepared in physiological saline and all injections were administered intraperitoneally (i.p.) in volumes of 0.1 cc per […] body weight unless otherwise noted. Fluoxetine hydrochloride (Flx): Flx (BioTrend Chemicals AG, BG197, Zurich, Germany) was administered in the drinking water (18 mg/kg/day) for 3 weeks before the start of CORT. […] (R,S)-ketamine (K): (R,S)-ketamine (Ketaset III, Ketamine HCl injection, Fort Dodge Animal Health, Fort Dodge, Iowa) was administered in a single dose at 30 mg/kg of body weight 1 week before the start of CFC. […] PF-04995274: PF-04995274 (Sigma, Catalog No. 1331782-27-4, St. Louis, Mo.) was administered a single dose at 3 or 10 mg/kg of body weight 1 week before the start of CFC. PF-04995274 was dissolved in saline using an ultrasonic homogenizer (BioLogics, Model 3000, Manassas, Va.). Osmotic minipump implantation: ALZET osmotic minipumps (Model 2004, […], 28 days) were implanted subcutaneously under isoflurane anesthesia as previously described [S2]. Osmotic minipumps were rotated under the skin two to three times per week. Behavioral Assays: All experiments were approved by the Institutional Animal Care and Use Committee (IACUC) at the New York Psychiatric Institute (NYSPI). Elevated Plus Maze (EPM): Testing was performed as previously described [S3]. Briefly, the maze is a plus-cross-shaped apparatus consisting of four arms, two open and two enclosed by walls, linked by a central platform at a height of 50 cm from the floor. Mice were individually placed in the center of the maze facing an open arm and were allowed to explore the maze for 5 min. The time spent in and the number of entries into the open arms was used as an anxiety index. Videos were scored using ANY-maze behavior tracking software (Stoelting, Wood Dale, Ill.). Novelty-Suppressed Feeding: The NSF is a conflict test that elicits competing motivations: the drive to eat and the fear of venturing into the center of a brightly lit arena. The latency to feed is used as an index of anxiety-like behavior, because classical anxiolytic drugs decrease this measure. The NSF test was carried out during an 8 min period as previously described [S3]. Briefly, the testing apparatus consisted of a plastic box (50×50×20 cm), the floor of which was covered with approximately 2 cm of bedding. For 129S6/SvEv experiments, mice were food restricted for 12 h. For the C57BL/6N experiments, mice were food restricted for 24 h. […]

[2] = test system: 129S6/SvEv mice; experiment: Forced swim test (FST) after CFC; type: in vivo
Method: as §1

[3] = test system: CA3 pyramidal cells; experiment: Whole-cell voltage clamp recordings of spontaneous EPSCs in CA3 slices; type: cell-based, mice; details: (R,S)-ketamine 30 mg/kg or prucalopride 3 mg/kg injected 1 week before slicing
Method: as §1

[4] = test system: BALB/cJRj mice; experiment: Elevated plus maze (EPM), acute anxiolytic-like effect; type: in vivo; details: GR125487 1 mg/kg i.p. 15 min before RS67333 1.5 mg/kg i.p.
Method: (§2) RS67333 (1.5 mg/kg, i.p.), diazepam (1.5 mg/kg, i.p.), fluoxetine (18 mg/kg, i.p.) were injected 45 min before testing in the Elevated Plus Maze (EPM), the Novelty Suppressed Feeding (NSF) or the Open Field (OF) in three independent cohorts of male BALB/cJRj mice.
(§3) To ensure the selectivity of the anxiolytic-like effects of RS67333, in a new cohort of male BALB/cJRj mice, GR125487 (1.0 mg/kg, i.p.) dissolved in 0.9% NaCl solution, was injected 15 minutes before RS67333 administration (1.5 mg/kg, i.p.). EPM or NSF occurred 45 min after RS67333 administration (A-S1). Behavioral consequences of the co-administration of GR125487+RS67333 were compared to RS67333 alone, diazepam (1.5 mg/kg, i.p.) fluoxetine (18 mg/kg, i.p.) and vehicle groups (0.9% saline solution, i.p.).
(§4) For mPFC drug infusion, two bilateral cannulae (75 μm-diameter silica capillary tubing inserted in 27G stainless steel catheter) were implanted in the mPFC [stereotaxic coordinates in mm from bregma: A=+2.10, L=±0.50, V=−2.60, A, anterior; L, lateral; and V, ventral, according to (A-S10)] under anesthesia (chloral hydrate, 400 mg/kg, i.p.). […] Diazepam (1.5 mg/kg) was used as a positive control.
In a new cohort of male BALB/cJRj mice, p-CPA was administered twice daily (at 0900 and 1700 h) for 3 consecutive days. RS67333 ([…]) and diazepam ([…]) were then intra-mPFC administered 24 h after the final p-CPA administration and behavioral test (EPM) occurred 45 minutes after local infusion.
The EPM is a widely used behavioral assay for rodents and it has been validated to assess the anti-anxiety effects of pharmacological agents (A-S11). This test was performed as described by (A-S1). The maze is a plus-cross-shaped apparatus, with two open arms and two arms closed by walls linked by a central platform 50 cm above the floor. Mice were individually put in the center of the maze facing an open arm and were allowed to explore the maze during 5 min for the behavioral consequences of an acute systemic administration or mPFC infusion and during 6 min for the optogenetic experiments. The time spent in and the numbers of entries into the open arms were used as an anxiety index. All parameters were measured using a videotracker (EPM3C, Bioseb, Vitrolles, France).

[5] = test system: BALB/cJRj mice; experiment: Novelty suppressed feeding (NSF), acute anxiolytic-like effect; type: in vivo; details: GR125487 1 mg/kg i.p. 15 min before RS67333 1.5 mg/kg i.p.
Method: as §2, §3, §4
The NSF is a conflict test that elicits competing motivations: the drive to eat and the fear of venturing into the center of a brightly lit arena. The latency to begin eating is used as an index of anxiety/depression-like behavior, because classical anxiolytic drugs as well as chronic antidepressants decrease this measure. The NSF test was carried out during a 10 min period as previously described (A-S12). Briefly, the testing apparatus consisted of a plastic box (50×50×20 cm), the floor of which was covered with approximately 2 cm of wooden bedding. Twenty-four hours prior to behavioral testing, all food was removed from the home cage. At the time of testing, a single pellet of food (regular chow) was placed on a white paper platform positioned in the center of the box. Each animal was placed in a corner of the box, and a stopwatch was immediately started. The latency to eat (defined as the mouse sitting on its haunches and biting the pellet with the use of forepaws) was timed. Immediately afterwards, the animal was transferred to its home cage, and the amount of food consumed by the mouse in the subsequent 5 min was measured, serving as a control for change in appetite as a possible confounding factor.

[6] = FIG. 4 cohort, Male, FIG. 4C, RMANOVA, Fisher's LSD
[7] = FIG. 4 cohort, Male, FIG. 4D, ANOVA, Fisher's LSD
[8] = FIG. 4 cohort, Male, FIG. 4F, RMANOVA, Fisher's LSD
[9] = FIG. 4 cohort, Male, FIG. 4G, ANOVA, Fisher's LSD

CNC1(c2ccccc2Cl)CCCCC1=O (racemic) [(R,S)-ketamine]
p, CFC Re-exposure Freezing (%), (R,S)-ketamine (30 mg/kg) vs. PF04995274 (3 mg/kg) [1, 6]: 0.1027 | p, CFC Re-exposure Freezing (%), (R,S)-ketamine (30 mg/kg) vs. PF04995274 (10 mg/kg) [1, 6]: 0.8015 | p, CFC Re-exposure Freezing (%), (R,S)-ketamine (30 mg/kg) vs. Prucalopride (3 mg/kg) [1, 6]: 0.1343 | p, CFC Re-exposure Freezing (%), (R,S)-ketamine (30 mg/kg) vs. Prucalopride (10 mg/kg) [1, 6]: 0.1023 | p, CFC Re-exposure Freezing (%), Saline vs. (R,S)-ketamine [1, 6]: 0.0448 | p, CFC Re-exposure, (R,S)-ketamine (30 mg/kg) vs. PF04995274 (3 mg/kg) [1, 7]: 0.1027 | p, CFC Re-exposure, (R,S)-ketamine (30 mg/kg) vs. PF04995274 (10 mg/kg) [1, 7]: 0.8015 | p, CFC Re-exposure, (R,S)-ketamine (30 mg/kg) vs. Prucalopride (3 mg/kg) [1, 7]: 0.1343 | p, CFC Re-exposure, (R,S)-ketamine (30 mg/kg) vs. Prucalopride (10 mg/kg) [1, 7]: 0.1023 | p, CFC Re-exposure, Saline vs. (R,S)-ketamine [1, 7]: 0.0448 | freezing during CFC training ([1]; male 129S6/SvEv, (R,S)-ketamine 30, prucalopride 3 or 10, PF-04995274 3 or 10 mg/kg, 1 week before CFC, vs saline): comparable levels of freezing | freezing at re-exposure to the training context (learned fear) vs saline ([1]; male 129S6/SvEv, single i.p. injection 1 week before CFC, re-exposure 5 days later, 30 mg/kg): attenuated learned fear | p, FST Day 2 Immobility Time (sec), (R,S)-ketamine (30 mg/kg) vs. PF04995274 (3 mg/kg) [2, 8]: 0.4094 | p, FST Day 2 Immobility Time (sec), (R,S)-ketamine (30 mg/kg) vs. PF04995274 (10 mg/kg) [2, 8]: 0.3813 | p, FST Day 2 Immobility Time (sec), (R,S)-ketamine (30 mg/kg) vs. Prucalopride (3 mg/kg) [2, 8]: 0.8332 | p, FST Day 2 Immobility Time (sec), (R,S)-ketamine (30 mg/kg) vs. Prucalopride (10 mg/kg) [2, 8]: 0.1712 | p, FST Day 2 Immobility Time (sec), Saline vs. (R,S)-ketamine (30 mg/kg) [2, 8]: 0.0218 | p, FST Day 2 Immobility Time (min 3-6) (sec), (R,S)-ketamine (30 mg/kg) vs. PF04995274 (3 mg/kg) [2, 9]: 0.5815 | p, FST Day 2 Immobility Time (min 3-6) (sec), (R,S)-ketamine (30 mg/kg) vs. PF04995274 (10 mg/kg) [2, 9]: 0.3207 | p, FST Day 2 Immobility Time (min 3-6) (sec), (R,S)-ketamine (30 mg/kg) vs. Prucalopride (3 mg/kg) [2, 9]: 0.8478 | p, FST Day 2 Immobility Time (min 3-6) (sec), (R,S)-ketamine (30 mg/kg) vs. Prucalopride (10 mg/kg) [2, 9]: 0.1763 | p, FST Day 2 Immobility Time (min 3-6) (sec), Saline vs. (R,S)-ketamine (30 mg/kg) [2, 9]: 0.0330 | immobility, FST day 1 ([2]; male 129S6/SvEv, (R,S)-ketamine 30, prucalopride 3 or 10, PF-04995274 3 or 10 mg/kg): comparable levels of immobility | immobility time, FST day 2 vs saline ([2]; male 129S6/SvEv, single injection 1 week before CFC, 30 mg/kg): decreased immobility time | average EPSC amplitude vs saline [3]: no differences | large AMPA receptor-mediated bursts of EPSCs [3]: not present | number of EPSCs vs saline [3]: no differences

COc1[nH]c2ccc(F)cc2c1C(=O)OCC1CCN(CCNS(C)(=O)=O)CC1.NS(=O)(=O)O [GR125487, 5-Fluoro-2-methoxy-[1-[2-[(methylsulfonyl)amino]ethyl]-4-piperidinyl]-1H-indole-3-methylcarboxylate sulfamate]
RS67333-induced increase in time and percent time spent in the open arms (EPM) [4]: prevented | RS67333-induced increase of ambulatory distance in the open arms divided by total distance (EPM) [4]: prevented | effect of RS67333 on the latency to feed (NSF) [5]: occluded
